Patent US20190225650A1, “PEPTIDOMIMETIC MACROCYCLES AND USE THEREOF IN REGULATING HIF1ALPHA” (AILERON THERAPEUTICS, INC., priority 2013, published 2019)
Bridge positions count the residues as written; N and C are the ends. Square brackets hold non-standard residues; d marks the D form. Peptide text beside a SMILES is read from it. R8 = C=CCCCCCC[C@@](C)(N)C(=O)O; S5 = C=CCCC[C@](C)(N)C(=O)O; Nle = CCCC[C@H](N)C(=O)O

Key:
[1] = test system: HRE-bla ME-180 cells; experiment: Cell proliferation assay (viability, MTT, 1% FBS); type: cell-based, human
In short: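 Viable cell number was measured with the CellTiter 96 (MTT) kit after compounds were applied for a 16 h normoxic (21% O2) pretreatment, followed by further normoxic or hypoxic (1% O2) culture. Cells: 2×10^4 ME-180 per well, Opti-MEM + 1% FBS, 0.5% DMSO vehicle.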

[2] = biological target: T1, flag-tagged HIF1α (AA 786-826) / His6-tagged p300 (AA 323-423) complex (Homo sapiens, UniProt Q09472); experiment: HIF1α p300 displacement assay (TR FRET, +CHAPS); type: binding; details: read-out: IC50 (nM) (HIF1α_p300 Displacement + CHAPS)
T1 construct: His6-tagged p300 (AA 323-423); made in house; host or cells: E. coli (pETDuet vector)
In short: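 In this TR-FRET displacement format, peptides compete HIF1α C-terminal transactivation domain off p300-CH. They were preincubated 1 h at room temperature with 300 nM complex in HEPES pH 7.4/NaCl buffer with 7.5 mM CHAPS and 1 mM DTT. Anti-His-D2 (4 nM) and anti-Flag-K (0.5 μM) followed for 2 h, and a one-site fit of the fluorescence ratio gave IC50.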

[3] = test system: HRE-bla ME-180 cells; experiment: Reporter gene assay (HRE-bla ME-180 HIF reporter, GeneBLAzer); type: cell-based, human; details: for EC50: 24 hour normoxia
In short: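 A FRET β-lactamase readout of HIF transcription was used. After compound treatment in 0.3% DMSO/media under normoxic conditions, 20 μl of 6× LiveBLAzer-FRET B/G (CCF4-AM) substrate was added. Plates sat 3 hr at room temperature in the dark and were read at 409 Ex/460Em and 409Ex/530Em on a Synergy 2. Inhibition was compared against DMSO vehicle controls, with chetomin as positive control.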

| IC50 [2] [nM] | EC50 [3] [µM] | SMILES | Viability 1% FBS AVG (MTT V3-24 hr Normoxia) (μM) [1] | 18 h Avg % max inhibition at top conc (HIF Rptr-24 hrs normoxia) (μM) [3] |
| --- | --- | --- | --- | --- |
| 200 to 400 | > 30 | CCCC[C@H](NC(=O)[C@H](CC(C)C)NC(=O)[C@@H](NC(=O)[C@H](CCC(=O)O)NC(=O)[C@H](CCC(=O)O)NC(=O)[C@H](CC(=O)O)NC(=O)[C@@H](NC(=O)[C@H](CC(N)=O)NC(=O)[C@@H](NC(=O)[C@H](CCC(N)=O)NC(=O)[C@H](CC(=O)O)NC(=O)[C@]1(C)CCCC=CCCCCCC[C@@](C)(NC(=O)[C@H](CCC(N)=O)NC(=O)[C@H](CC(C)C)NC(=O)[C@H](CC(C)C)NC(C)=O)C(=O)N[C@@H](CCC(=O)O)C(=O)N[C@@H](CCC(=O)O)C(=O)N[C@@H](CC(C)C)C(=O)N[C@@H](CC(C)C)C(=O)N[C@@H](CCCNC(=N)N)C(=O)N[C@@H](C)C(=O)N1)C(C)C)[C@@H](C)CC)C(C)C)C(=O)N[C@@]1(C)CCCC=CCCC[C@@](C)(C(=O)N[C@@H](CCCC)C(=O)NCC(N)=O)NC(=O)[C@H]([C@@H](C)CC)NC(=O)[C@H](C(C)C)NC(=O)[C@H](CC(C)C)NC1=O [SP-341] (Ac-LLQ[R8]EELLRA[S5]DQVNIDEEVL[Nle][S5]LVI[S5][Nle]G-NH2; staple 4-11, 23-27) | ++++ (≥30: ++++) | + (<10: +) |
| 200 to 400 | > 30 | CCCC[C@H](NC(=O)[C@H](CCC(=O)O)NC(=O)[C@]1(C)CCCC=CCCCCCC[C@@](C)(NC(=O)[C@H](CCC(=O)O)NC(=O)[C@H](CC(=O)O)NC(=O)[C@@H](NC(=O)[C@H](CC(N)=O)NC(=O)[C@@H](NC(=O)[C@]2(C)CCCC=CCCCCCC[C@@](C)(NC(=O)[C@H](CCC(=O)O)NC(C)=O)C(=O)N[C@@H](CC(C)C)C(=O)N[C@@H](CC(C)C)C(=O)N[C@@H](CCCNC(=N)N)C(=O)N[C@@H](C)C(=O)N[C@@H](CC(C)C)C(=O)N[C@@H](CC(=O)O)C(=O)N2)C(C)C)[C@@H](C)CC)C(=O)N[C@@H](C(C)C)C(=O)N[C@@H](CC(C)C)C(=O)N[C@@H](CCCC)C(=O)N[C@@H](CO)C(=O)N[C@@H](CC(C)C)C(=O)N[C@@H](C(C)C)C(=O)N1)C(N)=O [SP-358] (Ac-E[R8]LLRALD[S5]VNIDE[R8]VL[Nle]SLV[S5]E[Nle]-NH2; staple 2-9, 15-22) | ++++ (≥30: ++++) | + (<10: +) |
| 400 to 700 | ≤ 5 | CCCC[C@H](NC(=O)[C@H](CCC(=O)O)NC(=O)[C@]1(C)CCCC=CCCCCCC[C@@](C)(NC(=O)[C@H](CCC(=O)O)NC(=O)[C@H](CC(=O)O)NC(=O)[C@@H](NC(=O)[C@H](CC(N)=O)NC(=O)[C@@H](NC(=O)[C@H](CCC(N)=O)NC(=O)[C@]2(C)CCCC=CCCC[C@](C)(NC(=O)[C@H](CC(C)C)NC(=O)[C@H](CCC(=O)O)NC(=O)[C@H](CCC(=O)O)NC(=O)[C@H](C)NC(=O)[C@H](CCC(N)=O)NC(=O)[C@H](CC(C)C)NC(=O)[C@H](CC(C)C)NC(C)=O)C(=O)N[C@@H](CCCNC(=N)N)C(=O)N[C@@H](C)C(=O)N[C@@H](CC(C)C)C(=O)N2)C(C)C)[C@@H](C)CC)C(=O)N[C@@H](C(C)C)C(=O)N[C@@H](CC(C)C)C(=O)N[C@@H](CCCC)C(=O)N[C@@H](CO)C(=O)N[C@@H](CC(C)C)C(=O)N[C@@H](C(C)C)C(=O)N1)C(N)=O [SP-367] (Ac-LLQAEEL[S5]RAL[S5]QVNIDE[R8]VL[Nle]SLV[S5]E[Nle]-NH2; staple 8-12, 19-26) | ++++ (≥30: ++++) | ++++ (≥50: ++++) |
| 200 to 400 | > 30 | CCCC[C@H](NC(=O)[C@H](CCC(=O)O)NC(=O)[C@]1(C)CCCC=CCCCCCC[C@@](C)(NC(=O)[C@H](CCC(=O)O)NC(=O)[C@H](CC(=O)O)NC(=O)[C@@H](NC(=O)[C@H](CC(N)=O)NC(=O)[C@@H](NC(=O)[C@H](CCC(N)=O)NC(=O)[C@]2(C)CCCC=CCCC[C@](C)(NC(=O)[C@H](CC(C)C)NC(=O)[C@H](CCC(=O)O)NC(=O)[C@H](C)NC(=O)CNC(=O)[C@H](CCC(N)=O)NC(=O)[C@H](CC(C)C)NC(=O)[C@H](CC(C)C)NC(C)=O)C(=O)N[C@@H](CCCNC(=N)N)C(=O)N[C@@H](C)C(=O)N[C@@H](CC(C)C)C(=O)N2)C(C)C)[C@@H](C)CC)C(=O)N[C@@H](C(C)C)C(=O)N[C@@H](CC(C)C)C(=O)N[C@@H](CCCC)C(=O)N[C@@H](CO)C(=O)N[C@@H](CC(C)C)C(=O)N[C@@H](C(C)C)C(=O)N1)C(N)=O [SP-360] (Ac-LLQGAEL[S5]RAL[S5]QVNIDE[R8]VL[Nle]SLV[S5]E[Nle]-NH2; staple 8-12, 19-26) | ++++ (≥30: ++++) | ++ (≤10 but <25: ++) |

Further lines, the compound ahead of its results:

| SMILES | IC50 [2] [nM] | EC50 [3] [µM] | Viability 1% FBS AVG (MTT V3-24 hr Normoxia) (μM) [1] | 18 h Avg % max inhibition at top conc (HIF Rptr-24 hrs normoxia) (μM) [3] |
| --- | --- | --- | --- | --- |
| CCCC[C@H](NC(=O)[C@H](Cc1ccccc1)NC(=O)[C@@H](NC(=O)[C@H](C)NC(=O)[C@H](CCC(N)=O)NC(=O)[C@H](CC(=O)O)NC(=O)[C@@H](NC(=O)[C@H](Cc1ccccc1)NC(C)=O)[C@@H](C)CC)C(C)C)C(=O)N[C@@]1(C)CCCC=CCCC[C@@](C)(C(=O)N[C@@H](CCC(N)=O)C(=O)N[C@@H](C)C(=O)N[C@@H](CC(C)C)C(=O)N[C@@H](CC(C)C)C(N)=O)NC(=O)[C@H]([C@@H](C)CC)NC(=O)[C@H](C(C)C)NC(=O)[C@H](Cc2c[nH]cn2)NC1=O [SP-260] (Ac-FIDQAVF[Nle][S5]HVI[S5]QALL-NH2; staple 9-13) | > 700 | ≤ 5 | + (<5: +) | ++++ (≥50: ++++) |
| CCCC[C@H](NC(=O)[C@]1(C)CCCC=CCCCCCC[C@@](C)(NC(=O)[C@H](CCC(=O)O)NC(=O)[C@H](CCC(=O)O)NC(=O)[C@H](CC(=O)O)NC(=O)[C@@H](NC(=O)[C@H](CC(N)=O)NC(=O)[C@@H](NC(=O)[C@H](CCC(N)=O)NC(=O)[C@H](CC(=O)O)NC(=O)[C@H](CC(C)C)NC(=O)[C@H](C)NC(=O)[C@H](CCCNC(=N)N)NC(=O)[C@H](CC(C)C)NC(=O)[C@H](CC(C)C)NC(=O)[C@H](CCC(=O)O)NC(=O)[C@H](CCC(=O)O)NC(=O)CNC(=O)[C@H](CCC(N)=O)NC(=O)[C@H](CC(C)C)NC(=O)[C@H](CC(C)C)NC(C)=O)C(C)C)[C@@H](C)CC)C(=O)N[C@@H](CC(C)C)C(=O)N[C@@H](CCCC)C(=O)N[C@@H](CO)C(=O)N[C@@H](CC(C)C)C(=O)N[C@@H](C(C)C)C(=O)N[C@@H]([C@@H](C)CC)C(=O)N1)C(N)=O [SP-337] (Ac-LLQGEELLRALDQVNIDEE[R8]L[Nle]SLVI[S5][Nle]-NH2; staple 20-27) | 400 to 700 | > 30 | ++++ (≥30: ++++) | + (<10: +) |
